Oligonucleotides are written 5' to 3', each unit as a sugar letter and its base; * is a phosphorothioate linkage, no mark a phosphodiester; rarer units and linkages stand in square brackets, end groups in braces. Plain capitals give the bases only. d = 2'-deoxy (DNA); r = 2'-OH (RNA)
Also: test concentration or dose not given here.

In this data set the target is UBE2E3. The data set can be described thus: reporter assay of Huesken 2005. Particulars: siRNA.
With “sense rArUrCrArCrUrGrCrArArCrArUrCrArArCrArGdTdT / antisense rCrUrGrUrUrGrArUrGrUrUrGrCrArGrUrGrArUdAdG”, the normalised inhibition (eCFP-eYFP dual reporter) came out at 69.7%. To “sense rArUrUrCrArGrArArGrGrArGrCrUrArGrCrUrGdTdT / antisense rCrArGrCrUrArGrCrUrCrCrUrUrCrUrGrArArUdTdC” belongs 42.3%; to “sense rArUrUrUrArArGrCrCrArCrCrArArArGrGrUrUdTdT / antisense rArArCrCrUrUrUrGrGrUrGrGrCrUrUrArArArUdGdG”, 64.2%. For the substance “sense rArUrUrUrGrUrUrCrCrCrUrUrUrUrGrArCrArGdTdT / antisense rCrUrGrUrCrArArArArGrGrGrArArCrArArArUdAdG”, the normalised inhibition (eCFP-eYFP dual reporter) was 47.8%. To “sense rCrArArArGrGrUrUrUrUrGrCrUrGrUrCrUrArUdTdT / antisense rArUrArGrArCrArGrCrArArArArCrCrUrUrUrGdAdA” belongs 92.4%; to “sense rCrArArCrCrCrUrGrCrGrGrArUrCrCrUrCrUrGdTdT / antisense rCrArGrArGrGrArUrCrCrGrCrArGrGrGrUrUrGdCdA”, 56.3%. With “sense rCrArCrCrArArArCrUrCrUrCrUrArGrCrArArAdTdT / antisense rUrUrUrGrCrUrArGrArGrArGrUrUrUrGrGrUrGdTdT” the figure was 84.2%; with “sense rCrArCrCrArArArGrGrUrUrArCrUrUrUrCrCrGdTdT / antisense rCrGrGrArArArGrUrArArCrCrUrUrUrGrGrUrGdGdC”, 58.8%; with “sense rCrArCrUrCrArGrUrArUrUrUrGrArCrCrArArCdTdT / antisense rGrUrUrGrGrUrCrArArArUrArCrUrGrArGrUrGdGdC”, 87.1%. “sense rCrArGrUrGrCrUrGrGrGrCrCrUrArArArGrGrAdTdT / antisense rUrCrCrUrUrUrArGrGrCrCrCrArGrCrArCrUrGdCdA” gave a normalised inhibition (eCFP-eYFP dual reporter) of 73.2%. To “sense rCrArGrUrGrGrCrArGrUrUrCrArGrArUrGrCrGdTdT / antisense rCrGrCrArUrCrUrGrArArCrUrGrCrCrArCrUrGdCdT” belongs 53%; to “sense rCrCrArArArCrUrCrUrCrUrArGrCrArArArArCdTdT / antisense rGrUrUrUrUrGrCrUrArGrArGrArGrUrUrUrGrGdTdG”, 69.8%.

Substance “sense rCrCrArArCrArGrArGrCrArGrArArCrArCrGrAdTdT / antisense rUrCrGrUrGrUrUrCrUrGrCrUrCrUrGrUrUrGrGdTdC” showed a normalised inhibition (eCFP-eYFP dual reporter) of 88.8%. With “sense rCrCrUrCrCrUrCrCrUrArArUrUrGrCrArGrUrGdTdT / antisense rCrArCrUrGrCrArArUrUrArGrGrArGrGrArGrGdAdT” the figure was 62.6%; with “sense rCrCrUrUrArArArGrArCrArArCrUrGrGrArGrUdTdT / antisense rArCrUrCrCrArGrUrUrGrUrCrUrUrUrArArGrGdAdT”, 58.9%; with “sense rCrCrUrUrGrArUrCrCrUrCrCrUrCrCrUrArArUdTdT / antisense rArUrUrArGrGrArGrGrArGrGrArUrCrArArGrGdGdT”, 81.6%. In the case of “sense rCrGrArCrArGrGrArUrArGrCrCrArGrArCrArGdTdT / antisense rCrUrGrUrCrUrGrGrCrUrArUrCrCrUrGrUrCrGdTdG”, the normalised inhibition (eCFP-eYFP dual reporter) is 78%. To “sense rCrGrCrArCrCrArGrArArUrCrUrArUrCrArCrUdTdT / antisense rArGrUrGrArUrArGrArUrUrCrUrGrGrUrGrCrGdGdA” belongs 73.4%. To “sense rCrUrCrCrUrArArUrUrGrCrArGrUrGrCrUrGrGdTdT / antisense rCrCrArGrCrArCrUrGrCrArArUrUrArGrGrArGdGdA” belongs 51.1%; to “sense rCrUrCrCrUrCrCrUrArArUrUrGrCrArGrUrGrCdTdT / antisense rGrCrArCrUrGrCrArArUrUrArGrGrArGrGrArGdGdA”, 34.3%. With “sense rCrUrGrGrArGrUrCrCrCrGrCrUrUrUrGrArCrUdTdT / antisense rArGrUrCrArArArGrCrGrGrGrArCrUrCrCrArGdTdT” the figure was 72%. The substance “sense rCrUrGrUrArUrArUrGrArArGrGrUrGrGrUrGrUdTdT / antisense rArCrArCrCrArCrCrUrUrCrArUrArUrArCrArGdAdA” came in with a normalised inhibition (eCFP-eYFP dual reporter) of 36.8%.

In turn, “sense rCrUrUrGrGrUrCrCrArCrCrGrGrGrUrUrCrUrGdTdT / antisense rCrArGrArArCrCrCrGrGrUrGrGrArCrCrArArGdTdA” registered a normalised inhibition (eCFP-eYFP dual reporter) of 68.4%. The substance “sense rGrArArGrGrArGrCrUrArGrCrUrGrArArArUrAdTdT / antisense rUrArUrUrUrCrArGrCrUrArGrCrUrCrCrUrUrCdTdG” yielded a normalised inhibition (eCFP-eYFP dual reporter) of 88.5%. Take “sense rGrArCrCrArGrCrGrArGrArCrCrCrArGrCrCrGdTdT / antisense rCrGrGrCrUrGrGrGrUrCrUrCrGrCrUrGrGrUrCdCdG”: the normalised inhibition (eCFP-eYFP dual reporter) is 54.7%. With “sense rGrArUrArUrCrArCrArUrUrUrUrCrArUrCrArGdTdT / antisense rCrUrGrArUrGrArArArArUrGrUrGrArUrArUrCdCdA” the figure was 57.6%; with “sense rGrCrArArCrArUrCrArArCrArGrUrCrArGrGrGdTdT / antisense rCrCrCrUrGrArCrUrGrUrUrGrArUrGrUrUrGrCdAdG”, 66.1%. With “sense rGrCrCrArCrUrCrArGrUrArUrUrUrGrArCrCrAdTdT / antisense rUrGrGrUrCrArArArUrArCrUrGrArGrUrGrGrCdTdA” the figure was 90.9%. To “sense rGrCrGrArGrArCrCrCrArGrCrCrGrCrUrCrCrAdTdT / antisense rUrGrGrArGrCrGrGrCrUrGrGrGrUrCrUrCrGrCdTdG” belongs 69.2%; to “sense rGrCrUrGrGrGrCrCrUrArArArGrGrArGrArUrAdTdT / antisense rUrArUrCrUrCrCrUrUrUrArGrGrCrCrCrArGrCdAdC”, 67.2%; to “sense rGrGrArGrArUrArArCrArUrUrUrArUrGrArArUdTdT / antisense rArUrUrCrArUrArArArUrGrUrUrArUrCrUrCrCdTdT”, 75.8%. “sense rGrGrArGrCrUrArGrCrUrGrArArArUrArArCrCdTdT / antisense rGrGrUrUrArUrUrUrCrArGrCrUrArGrCrUrCrCdTdT” showed a normalised inhibition (eCFP-eYFP dual reporter) of 80.5%.

Turning to “sense rGrGrArGrUrCrArUrCrUrGrUrCrUrGrGrArCrAdTdT / antisense rUrGrUrCrCrArGrArCrArGrArUrGrArCrUrCrCdCdT”, the normalised inhibition (eCFP-eYFP dual reporter) is 75.6%.

In turn, “sense rGrGrArGrUrCrCrCrGrCrUrUrUrGrArCrUrArUdTdT / antisense rArUrArGrUrCrArArArGrCrGrGrGrArCrUrCrCdAdG” came in with a normalised inhibition (eCFP-eYFP dual reporter) of 69.2%. To “sense rGrGrArUrCrCrUrCrUrGrGrUrUrGrGrArArGrCdTdT / antisense rGrCrUrUrCrCrArArCrCrArGrArGrGrArUrCrCdGdC” belongs 59.8%. With “sense rGrGrUrUrArCrUrUrUrCrCrGrCrArCrCrArGrAdTdT / antisense rUrCrUrGrGrUrGrCrGrGrArArArGrUrArArCrCdTdT” the figure was 91.4%. To “sense rGrGrUrUrUrUrGrCrUrGrUrCrUrArUrUrUrGrUdTdT / antisense rArCrArArArUrArGrArCrArGrCrArArArArCrCdTdT” belongs 94.8%; to “sense rGrUrCrArGrGrGrArGrUrCrArUrCrUrGrUrCrUdTdT / antisense rArGrArCrArGrArUrGrArCrUrCrCrCrUrGrArCdTdG”, 83.4%; to “sense rGrUrCrArUrCrUrGrUrCrUrGrGrArCrArUrCrCdTdT / antisense rGrGrArUrGrUrCrCrArGrArCrArGrArUrGrArCdTdC”, 43.8%. Take “sense rGrUrGrCrUrArArArArGrArArUrUrCrArGrArAdTdT / antisense rUrUrCrUrGrArArUrUrCrUrUrUrUrArGrCrArCdTdA”: the normalised inhibition (eCFP-eYFP dual reporter) turned out to be 81.5%. On to “sense rUrArArArGrArCrArArCrUrGrGrArGrUrCrCrCdTdT / antisense rGrGrGrArCrUrCrCrArGrUrUrGrUrCrUrUrUrAdAdG”, for which the normalised inhibition (eCFP-eYFP dual reporter) was 43.8%. In turn, “sense rUrArArUrUrGrCrArGrUrGrCrUrGrGrGrCrCrUdTdT / antisense rArGrGrCrCrCrArGrCrArCrUrGrCrArArUrUrAdGdG” registered a normalised inhibition (eCFP-eYFP dual reporter) of 47.3%.

“sense rUrArCrUrUrUrCrCrGrCrArCrCrArGrArArUrCdTdT / antisense rGrArUrUrCrUrGrGrUrGrCrGrGrArArArGrUrAdAdC” displayed a normalised inhibition (eCFP-eYFP dual reporter) of 49.2%. To “sense rUrArUrGrArArGrGrUrGrGrUrGrUrGrUrUrUrUdTdT / antisense rArArArArCrArCrArCrCrArCrCrUrUrCrArUrAdTdA” belongs 50.1%; to “sense rUrArUrUrUrGrUrUrCrCrCrUrUrUrUrGrArCrAdTdT / antisense rUrGrUrCrArArArArGrGrGrArArCrArArArUrAdGdA”, 45.2%; to “sense rUrCrArArCrArGrUrCrArGrGrGrArGrUrCrArUdTdT / antisense rArUrGrArCrUrCrCrCrUrGrArCrUrGrUrUrGrAdTdG”, 74.7%. “sense rUrCrArGrArArGrGrArGrCrUrArGrCrUrGrArAdTdT / antisense rUrUrCrArGrCrUrArGrCrUrCrCrUrUrCrUrGrAdAdT”: the normalised inhibition (eCFP-eYFP dual reporter) came out at 87.4%.

“sense rUrCrArGrArUrUrArUrCrCrArUrUrUrArArGrCdTdT / antisense rGrCrUrUrArArArUrGrGrArUrArArUrCrUrGrAdTdG”: the normalised inhibition (eCFP-eYFP dual reporter) amounted to 38.2%.

For the substance “sense rUrCrArGrGrGrArGrUrCrArUrCrUrGrUrCrUrGdTdT / antisense rCrArGrArCrArGrArUrGrArCrUrCrCrCrUrGrAdCdT”, the normalised inhibition (eCFP-eYFP dual reporter) came out at 49%.

Source of the values: the OligoGym collection.
